We go through four compounds from patent publication US5135849A, “In-vitro methods for identifying compositions which are agonists and antagonists of androgens” (priority 1989, dated 1992).

Experiment [1] has as its system 3H-E2 binding in LNCaP cells. The experiment can be described thus: Competition with 3H-E2 binding in LNCaP cells. Further details: species or system human. As for the experimental part:
(§1) Steroid receptors measurement: The presence of intracellular sex steroid binding proteins was investigated in whole cell extracts as well as in intact cells. Cytosolic and nuclear extracts were obtained after centrifugation (105,000 g, 45 min.) of a sonicated cellular suspension in TKE buffer (10 mM Tris, 500 mM KCl, 0.5 mM EDTA, pH 7.4). Aliquots of this extract were incubated for 18 hours at 4° C. with increasing concentrations (2×10^- M to 2×10^-8 M) of labelled steroids, with and without a 200-fold excess of the corresponding unlabelled steroid. Bound and free fractions were separated by dextran-coated charcoal adsorption. Intact cells grown in monolayer culture were assayed for specific steroid binding [Olea-Serrano et al., Eur. J. Cancer Clin. Oncol. 21:965-973 (1983)]. Briefly, the cells were incubated in 12-well plates during 50 minutes at 37° C. in DME containing the labelled steroid with and without excess of cold competitor. The range of concentrations used was the same as that in the cytosolic-nuclear extract assay. […] The intracellular radioactivity was extracted with ethanol after ice-cold PBS washing. In both types of experiments, Scatchard analysis of the saturation data was used to quantify the maximal binding capacity (Bmax) and the affinity parameters (dissociation constant, Kd) using the SCAFIT program [Munson et al., Anal. Biochem. 107:220-239 (1980)].

Experiment [2] has as its system LNCaP cells. The experiment can be described thus: Phase 1 protocol to identify androgen agonist properties (LNCaP cell proliferation in CDHS medium). The note with it: for CHARACTERISTICS: classification from Phase 1 and Phase 2 protocols; for PHASE 1 CELL COUNT: final cell number per well at the optimal test conc., 10% CDHS. Format: cell-based, human. From the text: This protocol measures the potential agonistic properties of the substance under test. All manipulations are to be carried out under sterile conditions using disposable plastic tissue culture multiwell plates with all manipulations preferrably being performed in a tissue culture hood.
1. The cell line of choice is the LNCaP-FGC cell culture, an androgen-sensitive prostate tumor cell line. The LNaP cell line is routinely grown in 5% fetal bovine serum--supplemented Dulbecco's modified Eagle minimal essential medium (hereinafter "5% FBS/DME"), at 37° C. in a 95% air--5% CO2 atmosphere.
2. The cultured cells growing in 5% FBS/DME are harvested by treatment with trypsin (1:250)--EDTA (0.2%). The cells are detached by brief exposure to trypsin for about two minutes. To avoid excessive proteolysis, the reaction is quenched by addition of equal volumes of 5% FBS/DME. The resulting cell suspension is collected into a sterile centrifuge tube and resuspended by pipetting gently. The aliquots of this cell suspension thus obtained are dispersed by means of a Skatron dispenser into individual wells containing the seedling medium (1 ml of 5% FBS/DME per well) of a multiwell plate. Each final prepared suspension preferably contains 50,000 cells in a volume of 1.0 ml. It is desirable that the number of cells be counted and verified by means of a Coulter Counter (Coulter Electronics, Hialeah, FL).
The number of wells in each plate will correspond to the number of concentrations per test substances to be evaluated and thus is merely a question of choice or convenience to the user. Into each well, 25 microliter (hereinafter "ul") aliquots of the prepared cell suspension are added using a 1.0 ml syringe fitted with a 19 gauge needle attached to a repetitive Dunn pipetter (Skatron Dispenser). The microtiter plate is then gently shaken to avoid unequal cell distribution within each individual well. The seeded cells are then allowed to attach to the plastic surface of the well proper over a period of 24-72 hours' duration after which the fluid is changed to the experimental maintaining medium.
3 At the time of test, all the seeded cells in each well of the multiwell plate receive 10% heat inactivated--charcoal-dextran human stripped serum (CDHS) in DME at a volume of 0.9 ml per well. Although higher concentrations of CDHS may be utilized up to and including 40% concentrations, the 10% concentration is most preferred.
5. To the other prepared (seeded) wells, 100 ul of the test substance to be evaluated is added as a 10X stock solution to achieve final concentrations ranging from 10^-5 M to at least 10^-12 M. The substance under test is preferably prepared as a stock solution in ethanol, most preferrably as a 10^-3 M solution. All dilutions from the stock preparation are made using DME. The ethanol concentration in the culture medium should be kept below […] by volume. This preparative technique and precaution avoids the need to filter the various volumes of test substance to achieve sterility. This is particularly valuable because steroidal compositions are known to become adsorbed to the commercially obtained filter membranes used for sterilization. The addition of the test substance in appropriate concentrations to the cultured cells and the maintaining medium forms a series of individual reaction mixtures, each of which is varied only by the concentration of the test substance present in the well.
6. After the series of individual reaction mixtures are formed, all of the cultured cells under test in each well of the microtiter plate are incubated at 37° C. preferably in an atmosphere of 5% CO2 /95% air under saturating humidity. During this incubation time, it is desired and preferred that the cultured cells employed in the test be maintained in an atmosphere most advantageous for survival and growth of that cell line. The incubation period preferably is in the range of from 5 to 7 days' duration.

In another experiment the target is T1, androgen receptor (Homo sapiens, UniProt P10275, T878A).
T1 construct: the presence of specific androgen receptors in LNCaP cells; endogenous in cells; extract or intact cells for the saturation analysis
T1 sequence (P10275 whole entry T878A): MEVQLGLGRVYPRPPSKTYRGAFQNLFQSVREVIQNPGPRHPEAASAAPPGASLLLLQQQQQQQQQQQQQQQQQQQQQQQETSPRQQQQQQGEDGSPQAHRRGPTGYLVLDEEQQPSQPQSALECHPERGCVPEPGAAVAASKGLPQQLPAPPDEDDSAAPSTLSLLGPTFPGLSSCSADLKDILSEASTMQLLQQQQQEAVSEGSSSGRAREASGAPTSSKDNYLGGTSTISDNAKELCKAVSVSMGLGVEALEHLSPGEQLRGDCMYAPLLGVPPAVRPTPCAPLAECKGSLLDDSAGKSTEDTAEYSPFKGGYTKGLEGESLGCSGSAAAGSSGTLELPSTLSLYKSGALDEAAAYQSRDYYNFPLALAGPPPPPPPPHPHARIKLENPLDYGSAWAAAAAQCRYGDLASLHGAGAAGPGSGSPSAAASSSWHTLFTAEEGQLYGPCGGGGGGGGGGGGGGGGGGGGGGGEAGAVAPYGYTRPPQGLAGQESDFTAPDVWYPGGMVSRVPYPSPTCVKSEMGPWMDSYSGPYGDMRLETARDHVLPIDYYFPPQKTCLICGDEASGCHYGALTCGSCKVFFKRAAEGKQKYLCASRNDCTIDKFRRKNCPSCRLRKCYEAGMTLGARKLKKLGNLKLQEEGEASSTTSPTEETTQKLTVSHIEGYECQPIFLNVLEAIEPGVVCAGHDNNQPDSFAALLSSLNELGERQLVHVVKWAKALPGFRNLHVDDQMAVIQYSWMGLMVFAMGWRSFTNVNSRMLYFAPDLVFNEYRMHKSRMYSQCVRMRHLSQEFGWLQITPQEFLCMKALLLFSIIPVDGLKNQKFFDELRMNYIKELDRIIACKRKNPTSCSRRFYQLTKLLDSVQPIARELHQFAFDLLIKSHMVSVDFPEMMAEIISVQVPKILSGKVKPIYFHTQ
Briefly: Competition for androgen receptors with 3H-testosterone in LNCaP cytosol-nuclear extracts (RBA). The format is binding. The note with it: Table II, 5α-DHT = 100; 6×10^-9 M 3H-testosterone. How it is done:
as §1
Cytosol-nuclear extracts were used to study competition for androgen receptors. […] The relative binding affinity (RBA) was calculated from the equation: […]

The test system of experiment [3] is LNCaP cells. The experiment can be described thus: Proliferation rate (doubling time) of LNCaP cells in 10% CDHS. The format is cell-based, human. The note with it: compared with 5α-DHT. How it is done: 8. To obtain reproducible, accurate, and reliable data consistently using this protocol, a series of quality assurance measures should be employed. […] These goals are achieved using the optimal 5-7 day incubation period. […] For this innoculum, cells are harvested every 24-48 hours (preferably as triplicate samples) until the entire 5-7 day incubation period expires. A good estimate of the proliferation rate is the mean generation time, "tD ". tD is calculated from the equation α=1/txln Ct /Co , where Co is the initial cell number, Ct is the cell number at time-t, and α is the instantaneous cell proliferation constant (tD is the value ln Ct /Co x would have when Ct =2Co) "tD " is expressed in time units, i.e., hr. The slopes of the different growth curves are calculated by fitting the experimental data to a straight line by regression analysis of the pairs ln cell numbers/time. to is defined as the moment at which the seeding medium is replaced by the maintaining medium.
The inhibitory effect of CD human sera was not instantaneous; at the end of 3 to 4 days the population increase was halted and remained stable for up to 30 days without media changes.

The test system of experiment [4] is LNCaP cells. The experiment can be described thus: Phase 2 protocol for androgen antagonistic properties (LNCaP proliferation with 3×10^-10 M 5α-DHT plus test substance). As to conditions: Phase 2 protocol.

Consider `CC/C(=C(/CC)c1ccc(O)cc1)c1ccc(O)cc1` [DES, diethylstilbestrol], for which the “competition with 3H-E2 binding, in words” value in experiment [1] is “did not compete”. Besides, in the experiment with LNCaP cells [2] (Phase 1 protocol, CDHS-supplemented media), the “agonistic / proliferative activity, in words” value is given as “no agonistic activity at all”. Further, in the experiment on LNCaP cells [2], the CHARACTERISTICS entry is reported as “full antagonist” and the “PHASE 1 CELL COUNT” value is recorded as 5 × 10^4.
As to `C#C[C@]1(O)CC[C@H]2[C@@H]3CCc4cc(O)ccc4[C@H]3[C@@H](OC)C[C@@]21C` [R2858, 11β-methoxy-19-nor-17a-1,3,5(10)-trien-20-yne-3,17-diol], the “competition with 3H-E2 binding, in words” value in experiment [1] is “did not compete”. Also, the “RBA (relative binding affinity to the androgen receptor)” value at androgen receptor is reported as less than 0.01. Further, in the experiment with LNCaP cells [2], the “PHASE 1 CELL COUNT” value was 5 × 10^4.
In the case of `C[C@]12CC[C@@H]3c4ccc(O)cc4CC[C@H]3[C@@H]1CC[C@@H]2O` [estradiol 17β, estra-1,3,5(10)-triene-3,17-diol], the “population doubling time, in words” value in the experiment on LNCaP cells [3] was “slightly shorter population doubling time”. Besides, the “antagonistic activity, in words” value in the experiment with LNCaP cells [4] is “no antagonistic activity”. Further, in the experiment with LNCaP cells [2], the CHARACTERISTICS result was “full agonist” and the “PHASE 1 CELL COUNT” value is listed as 4.0 × 10^5. Also, in the experiment with LNCaP cells [2] (listed as estradiol-17β), the CHARACTERISTICS result is “full agonists”.
For `C[C@]12C[C@H](CCl)[C@@H]3c4ccc(O)cc4CC[C@H]3[C@@H]1CC[C@@H]2O` [Org 4333, 11β-chloromethyl estradiol], the “antagonistic activity, in words” value in the experiment on LNCaP cells [4] is “no antagonistic activity”. Besides, at androgen receptor, the “RBA (relative binding affinity to the androgen receptor)” value turned out to be 1.2. Moreover, the “RELATIVE PROLIFERATIVE POTENCY” value with LNCaP cells [2] (Table II, 5α-DHT = 1.0, 5 × 10^4 cell inoculum grown in CDHS for 8 days) came out at 0.01. In addition, in the experiment on LNCaP cells [2], the CHARACTERISTICS entry is reported as “full agonists” and the “PHASE 1 CELL COUNT” value is given as 4.0 × 10^5.
